Results taken from ChEMBL document CHEMBL6078677, “Discovery and optimization of tetrahydroacridine derivatives as a novel class of antibiotics against multidrug-resistant Gram-positive pathogens by targeting type I signal peptidase and disrupting bacterial membrane” (Eur J Med Chem, 2025).
≈ marks a conversion by molar mass, not a printed value. Calls of active or inactive are those of the source. No cut-off for these calls is given here.

Key:
Staphylococcus aureus [1] = assay: Antimicrobial activity against Staphylococcus aureus YZSA-24 harboring erythromycin resistance rRNA methylase C and methicillin resistance gene resistance locus assessed as inhibition of visible growth of bacteria incubated for 20 hrs by broth microdilution method; type: functional
Enterococcus faecium [2] = assay: Antimicrobial activity against Enterococcus faecium HFY01 assessed as inhibition of visible growth of bacteria incubated for 20 hrs by broth microdilution method; type: functional
[3] = Hemolytic activity in Kunming mouse erythrocytes assessed as hemolysis at 2 times of MIC measured after 1 hrs by absorbance based assay relative to control; type: toxicity, cell-based, Erythrocyte; conditions: read-out: Activity
Staphylococcus aureus [4] = assay: Bactericidal activity against Staphylococcus aureus ATCC 29213 assessed as log reduction in bacterial number at 4 times of MIC measured after 24 hrs by time-kill kinetics assay; type: functional
[5] = Hemolytic activity in Kunming mouse erythrocytes assessed as hemolysis at 8 times of MIC measured after 1 hrs by absorbance based assay relative to control; type: toxicity, cell-based, Erythrocyte; conditions: read-out: Activity
[6] = Cytotoxicity against human Caco-2 cells assessed as cell viability at 16 times of MIC incubated for 48 hrs by CCK8 assay (reference value: 99.54 %); type: toxicity, cell-based; conditions: read-out: Activity
[7] = Hemolytic activity in Kunming mouse erythrocytes assessed as hemolysis at 1 time of MIC measured after 1 hrs by absorbance based assay relative to control; type: toxicity, cell-based, Erythrocyte; conditions: read-out: Activity
Escherichia coli = assay: Antimicrobial activity against Escherichia coli ATCC 25922 assessed as inhibition of visible growth of bacteria incubated for 20 hrs by broth microdilution method; type: functional
Signal peptidase I = Signal peptidase I (Escherichia coli K-12, UniProt P00803); assay: Binding affinity to recombinant 6His-tagged Escherichia coli LepB (77 to 324 residues) extracted from Escherichia coli BL21 (DE3) cells assessed as dissociation constant by MST analysis
Enterococcus faecium [8] = assay: Antimicrobial activity against Enterococcus faecium MC38 harboring erythromycin resistance rRNA methylase B and oxazolidinone-phenicol transferable resistance gene assessed as inhibition of visible growth of bacteria incubated for 20 hrs by broth microdilution method; type: functional
Staphylococcus aureus [9] = assay: Antimicrobial activity against Staphylococcus aureus ATCC 29213 assessed as inhibition of visible growth of bacteria incubated for 20 hrs by broth microdilution method; type: functional
[10] = Cytotoxicity against human HEp-2 cells assessed as cell viability at 1 time of MIC incubated for 48 hrs by CCK8 assay (reference value: 100 %); type: toxicity, cell-based; conditions: read-out: Activity
[11] = Cytotoxicity against human HEp-2 cells assessed as cell viability at 4 times of MIC incubated for 48 hrs by CCK8 assay (reference value: 100 %); type: toxicity, cell-based; conditions: read-out: Activity
Streptococcus pyogenes = assay: Antimicrobial activity against Streptococcus pyogenes DL02 harboring erythromycin-resistance rRNA methylase B assessed as inhibition of visible growth of bacteria incubated for 20 hrs by broth microdilution method; type: functional
Staphylococcus aureus [12] = assay: Antimicrobial activity against Staphylococcus aureus YZSA-15 harboring erythromycin resistance rRNA methylase C and vancomycin resistance locus assessed as inhibition of visible growth of bacteria incubated for 20 hrs by broth microdilution method; type: functional
Streptococcus agalactiae = assay: Antimicrobial activity against Streptococcus agalactiae DL03 harboring erythromycin-resistance rRNA methylase B assessed as inhibition of visible growth of bacteria incubated for 20 hrs by broth microdilution method; type: functional
Pseudomonas aeruginosa [13] = assay: Antimicrobial activity against Pseudomonas aeruginosa PA14 assessed as inhibition of visible growth of bacteria incubated for 20 hrs by broth microdilution method; type: functional
[14] = Hemolytic activity in Kunming mouse erythrocytes assessed as hemolysis at 4 times of MIC measured after 1 hrs by absorbance based assay relative to control; type: toxicity, cell-based, Erythrocyte; conditions: read-out: Activity
Enterococcus faecalis [15] = assay: Antimicrobial activity against Enterococcus faecalis J2 harboring erythromycin-resistance rRNA methylase B and oxazolidinone phenicol transferable resistance gene assessed as inhibition of visible growth of bacteria incubated for 20 hrs by broth microdilution method; type: functional
Enterococcus faecalis [16] = assay: Antimicrobial activity against Enterococcus faecalis JH2-2 assessed as inhibition of visible growth of bacteria incubated for 20 hrs by broth microdilution method; type: functional
Enterococcus faecalis [17] = assay: microbe, parasite or virus in culture; type: functional; conditions: SF23-1, time 20 hrs
Description: Antimicrobial activity against Enterococcus faecalis SF23-1 harboring erythromycin-resistance rRNA methylase B, tetracycline efflux protein L and chloramphenicol-florfenicol resistance methylase assessed as inhibition of visible growth of bacteria incubated for 20 hrs by broth microdilution method

Salmonella enteritidis = assay: Antimicrobial activity against Salmonella enteritis S1 assessed as inhibition of visible growth of bacteria incubated for 20 hrs by broth microdilution method; type: functional, Salmonella enterica subsp. enterica serovar Enteritidis; conditions: Salmonella enterica
Staphylococcus aureus [18] = assay: Bactericidal activity against Staphylococcus aureus ATCC 29213 assessed as bacterial killing at 8 times of MIC measured within 12 hrs by time-kill kinetics assay; type: functional, organism-based
[19] = Cytotoxicity against human HEp-2 cells assessed as cell viability at 2 times of MIC incubated for 48 hrs by CCK8 assay (reference value: 100 %); type: toxicity, cell-based; conditions: read-out: Activity
Acinetobacter baumannii [20] = assay: Antimicrobial activity against Acinetobacter baumannii AB11 assessed as inhibition of visible growth of bacteria incubated for 20 hrs by broth microdilution method; type: functional
Enterococcus faecium [21] = assay: Antimicrobial activity against Enterococcus faecium QF31 harboring erythromycin resistance rRNA methylase B and chloramphenicol-florfenicol resistance methylase assessed as inhibition of visible growth of bacteria incubated for 20 hrs by broth microdilution method; type: functional
[22] = Cytotoxicity against human HEp-2 cells assessed as cell viability at 8 times of MIC incubated for 48 hrs by CCK8 assay (reference value: 100 %); type: toxicity, cell-based; conditions: read-out: Activity
Klebsiella pneumoniae = assay: Antimicrobial activity against Klebsiella pneumoniae 9-1 assessed as inhibition of visible growth of bacteria incubated for 20 hrs by broth microdilution method; type: functional
Staphylococcus aureus [23] = assay: microbe, parasite or virus in culture; type: functional; conditions: M92-1, time 20 hrs
Description: Antimicrobial activity against Staphylococcus aureus M92-1 harboring erythromycin resistance rRNA methylase B, tetracycline efflux protein L and oxazolidinone-phenicol transferable resistance gene assessed as inhibition of visible growth of bacteria incubated for 20 hrs by broth microdilution method

Streptococcus suis [24] = assay: microbe, parasite or virus in culture; type: functional; conditions: SH0918, time 20 hrs
Description: Antimicrobial activity against Streptococcus suis SH0918 harboring erythromycin-resistance rRNA methylase B, tetracycline efflux protein O and oxazolidinone phenicol transferable resistance gene assessed as inhibition of visible growth of bacteria incubated for 20 hrs by broth microdilution method

[25] = Hemolytic activity in Kunming mouse erythrocytes assessed as hemolysis at 16 times of MIC measured after 1 hrs by absorbance based assay relative to control; type: toxicity, cell-based, Erythrocyte; conditions: read-out: Activity
Staphylococcus aureus [26] = assay: Antimicrobial activity against Staphylococcus aureus YZSA-21 harboring erythromycin resistance rRNA methylase C assessed as inhibition of visible growth of bacteria incubated for 20 hrs by broth microdilution method; type: functional
[27] = Cytotoxicity against human Caco-2 cells assessed as cell viability at 4 times of MIC incubated for 48 hrs by CCK8 assay (reference value: 99.54 %); type: toxicity, cell-based; conditions: read-out: Activity
[28] = Hemolytic activity in Kunming mouse erythrocytes measured after 1 hrs by absorbance based assay; type: toxicity, cell-based, Erythrocyte
Staphylococcus aureus [29] = assay: Bactericidal activity against Staphylococcus aureus ATCC 29213 assessed as decrease in bacterial number measured within 12 hrs by time-kill kinetics assay; type: functional, organism-based
[30] = Cytotoxicity against human Caco-2 cells assessed as cell viability at 2 times of MIC incubated for 48 hrs by CCK8 assay (reference value: 99.54 %); type: toxicity, cell-based; conditions: read-out: Activity
Acinetobacter baumannii [31] = assay: Antimicrobial activity against Acinetobacter baumannii 7979 assessed as inhibition of visible growth of bacteria incubated for 20 hrs by broth microdilution method; type: functional
[32] = Cytotoxicity against human HEp-2 cells assessed as cell viability at 16 times of MIC incubated for 48 hrs by CCK8 assay (reference value: 100 %); type: toxicity, cell-based; conditions: read-out: Activity
Staphylococcus aureus [33] = assay: microbe, parasite or virus in culture; type: functional; conditions: M147-2, time 20 hrs
Description: Antimicrobial activity against Staphylococcus aureus M147-2 harboring erythromycin resistance rRNA methylase B, tetracycline efflux protein L and chloramphenicol-florfenicol resistance methylase assessed as inhibition of visible growth of bacteria incubated for 20 hrs by broth microdilution method

[34] = Cytotoxicity against human Caco-2 cells assessed as cell viability at 1 time of MIC incubated for 48 hrs by CCK8 assay (reference value: 99.54 %); type: toxicity, cell-based; conditions: read-out: Activity
Streptococcus suis [35] = assay: Antimicrobial activity against Streptococcus suis P1/7 assessed as inhibition of visible growth of bacteria incubated for 20 hrs by broth microdilution method; type: functional
Enterococcus faecalis [36] = assay: Antimicrobial activity against Enterococcus faecalis ES01 harboring erythromycin-resistance rRNA methylase B and vanB-type vancomycin-resistance locus assessed as inhibition of visible growth of bacteria incubated for 20 hrs by broth microdilution method; type: functional
Staphylococcus aureus [37] = assay: Drug resistance, ratio of MIC for Staphylococcus aureus ATCC 29213 measured after 28 days to MIC for Staphylococcus aureus ATCC 29213 measured after 20 hrs; type: functional
Pseudomonas aeruginosa [38] = assay: Antimicrobial activity against Pseudomonas aeruginosa PA01 assessed as inhibition of visible growth of bacteria incubated for 20 hrs by broth microdilution method; type: functional
[39] = Cytotoxicity against human Caco-2 cells assessed as cell viability at 8 times of MIC incubated for 48 hrs by CCK8 assay (reference value: 99.54 %); type: toxicity, cell-based; conditions: read-out: Activity

Chain of Signal peptidase I (P00803 whole entry, the tested form may be a part): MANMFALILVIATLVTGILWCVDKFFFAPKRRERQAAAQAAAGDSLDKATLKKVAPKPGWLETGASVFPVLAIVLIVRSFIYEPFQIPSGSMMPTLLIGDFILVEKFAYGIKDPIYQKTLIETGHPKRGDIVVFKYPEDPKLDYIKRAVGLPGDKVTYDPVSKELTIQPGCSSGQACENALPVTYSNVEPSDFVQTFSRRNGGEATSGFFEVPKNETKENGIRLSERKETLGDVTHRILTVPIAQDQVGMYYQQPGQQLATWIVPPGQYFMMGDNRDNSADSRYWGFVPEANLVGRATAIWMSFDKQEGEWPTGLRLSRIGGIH

SMILES: CCCCCCc1ccc(-c2ccc(/C=C3\CC(C)Cc4c3nc3ccc(OC)cc3c4C(=O)O)cn2)cc1 (racemic)
- MIC (Staphylococcus aureus [1]): 4 µg/mL (≈ 7.68 µM)
- MIC (Enterococcus faecium [2]): 4 µg/mL (≈ 7.68 µM)
- hemolysis at 1 h, 2 times of MIC [3]: 0.33%
- Activity (Staphylococcus aureus [4]): 2.6 log10CFU/ml
- hemolysis at 1 h, 8 times of MIC [5]: 55.8%
- viability at 48 h, 16 times of MIC [6]: 1.44%
- hemolysis at 1 h, 1 time of MIC [7]: 0%
- MIC (Escherichia coli): > 128 µg/mL
- Kd (Signal peptidase I): 20.9 µM
- MIC (Enterococcus faecium [8]): 4 µg/mL (≈ 7.68 µM)
- MIC (Staphylococcus aureus [9]): 4 µg/mL (≈ 7.68 µM)
- viability at 48 h, 1 time of MIC [10]: 101%
- viability at 48 h, 4 times of MIC [11]: 64%
- MIC (Streptococcus pyogenes): 16 µg/mL (≈ 30.7 µM)
- MIC (Staphylococcus aureus [12]): 4 µg/mL (≈ 7.68 µM)
- MIC (Streptococcus agalactiae): 8 µg/mL (≈ 15.4 µM)
- MIC (Pseudomonas aeruginosa [13]): > 128 µg/mL
- hemolysis at 1 h, 4 times of MIC [14]: 0.98%
- MIC (Enterococcus faecalis [15]): 4 µg/mL (≈ 7.68 µM)
- MIC (Enterococcus faecalis [16]): 8 µg/mL (≈ 15.4 µM)
- MIC (Enterococcus faecalis [17]): 8 µg/mL (≈ 15.4 µM)
- MIC (Salmonella enteritidis): > 128 µg/mL
- Activity (Staphylococcus aureus [18]): Active
- viability at 48 h, 2 times of MIC [19]: 94.1%
- MIC (Acinetobacter baumannii [20]): > 128 µg/mL
- MIC (Enterococcus faecium [21]): 4 µg/mL (≈ 7.68 µM)
- viability at 48 h, 8 times of MIC [22]: 39%
- MIC (Klebsiella pneumoniae): > 128 µg/mL
- MIC (Staphylococcus aureus [23]): 4 µg/mL (≈ 7.68 µM)
- MIC (Streptococcus suis [24]): 32 µg/mL (≈ 61.5 µM)
- hemolysis at 1 h, 16 times of MIC [25]: 72.5%
- MIC (Staphylococcus aureus [26]): 4 µg/mL (≈ 7.68 µM)
- viability at 48 h, 4 times of MIC [27]: 49.7%
- HC50 at 1 h [28]: 34.8 µg/mL
- Activity (Staphylococcus aureus [29]): Dose-dependent-effect
- viability at 48 h, 2 times of MIC [30]: 73.5%
- MIC (Acinetobacter baumannii [31]): > 128 µg/mL
- viability at 48 h, 16 times of MIC [32]: 1.91%
- MIC (Staphylococcus aureus [33]): 4 µg/mL (≈ 7.68 µM)
- viability at 48 h, 1 time of MIC [34]: 99.7%
- MIC (Streptococcus suis [35]): 32 µg/mL (≈ 61.5 µM)
- MIC (Enterococcus faecalis [36]): 4 µg/mL (≈ 7.68 µM)
- Ratio (Staphylococcus aureus [37]): 4
- MIC (Pseudomonas aeruginosa [38]): > 128 µg/mL
- viability at 48 h, 8 times of MIC [39]: 17.8%
